One molecule from publication PMC8164802, “Biological evaluation of Safrole oil and Safrole oil Nanoemulgel as antioxidant, antidiabetic, antibacterial, antifungal and anticancer” (BMC Complementary Medicine and Therapies, 2021) can be followed below.

This assay deals with T1, porcine pancreatic α-amylase (Sus scrofa, UniProt P00690).
T1 construct: gene AMY2
Put plainly: DNSA colorimetric assay of starch hydrolysis, […] nm. In kind it is biochemical.

T1 sequence (P00690 16-511): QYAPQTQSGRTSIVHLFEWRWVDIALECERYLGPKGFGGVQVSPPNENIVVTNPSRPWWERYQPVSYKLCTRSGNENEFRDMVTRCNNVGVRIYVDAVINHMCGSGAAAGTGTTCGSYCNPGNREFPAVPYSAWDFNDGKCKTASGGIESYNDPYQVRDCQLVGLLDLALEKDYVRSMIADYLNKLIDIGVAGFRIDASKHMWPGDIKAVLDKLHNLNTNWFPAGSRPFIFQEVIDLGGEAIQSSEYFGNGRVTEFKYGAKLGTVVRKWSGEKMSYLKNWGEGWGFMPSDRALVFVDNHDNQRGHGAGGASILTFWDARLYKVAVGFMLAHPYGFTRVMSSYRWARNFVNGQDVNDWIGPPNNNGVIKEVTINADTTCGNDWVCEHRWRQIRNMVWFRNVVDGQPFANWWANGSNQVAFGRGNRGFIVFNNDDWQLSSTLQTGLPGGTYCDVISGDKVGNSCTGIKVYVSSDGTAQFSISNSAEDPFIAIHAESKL

In turn, `C=CCc1ccc2c(c1)OCO2` [Safrole, 1-allyl-3,4-methylenedioxybenzene] gave an IC50 of 70 µM.

The term IC50 denotes the midpoint of a concentration-inhibition curve.
